Results published in patent EP1979351B1, “6-PHENYL-1H-IMIDAZO[4, 5-C]PYRIDINE-4-CARBONITRILE DERIVATIVES AS CATHEPSIN K AND S INHIBITORS” (N.V. Organon, priority 2006, dated 2007).

Target: recombinant human Cathepsin S (Homo sapiens, UniProt P25774)
Experiment: Cathepsin S assay procedure: inhibition of enzyme activity, fluorescence of liberated aminomethylcoumarin
Assay type: biochemical
Settings: activated recombinant human cathepsin S; substrate Z-Val-Val-Arg-AMC; sodium acetate pH5.5; fluorescence at 20 minutes; dose response curve; read-out: pIC50 (negative logarithm of the IC50 concentration) for inhibition of human cathepsin S (converted)
Experimental: 25µl of a 2mg/l solution of activated recombinant human cathepsin S, in assay buffer, is then added to the well, yielding a final inhibitor concentration of 10µM.
Enzyme activity is determined by measuring the fluorescence of the liberated aminomethylcoumarin at […] using 390nm excitation, at 20 minutes. Percentage enzyme activity is calculated by comparison of this activity to that of a solution containing no inhibitor.

Sequence of recombinant human Cathepsin S (P25774 115-331): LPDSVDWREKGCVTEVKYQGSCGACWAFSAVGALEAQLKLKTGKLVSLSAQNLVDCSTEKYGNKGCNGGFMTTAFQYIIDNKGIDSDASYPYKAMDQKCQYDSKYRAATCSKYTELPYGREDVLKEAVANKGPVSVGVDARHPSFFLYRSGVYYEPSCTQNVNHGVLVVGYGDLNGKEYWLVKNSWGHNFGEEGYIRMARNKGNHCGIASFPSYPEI

IC50 [nM] | Structure (SMILES)
< 100 | CCOc1ccc(-c2cc3c(ncn3CCCC(=O)O)c(C#N)n2)cc1C(F)(F)F [Example 4, [4-Cyano-6-(4-ethoxy-3-trifluoromethyl-phenyl)-imidazo[4,5-c]pyridin-1-yl]-butyric acid]
< 100 | CCOc1ccc(-c2cc3[nH]c(CN4CCN(CCO)CC4)nc3c(C#N)n2)cc1C(F)(F)F [Example 13l, 6-(4-Ethoxy-3-trifluoromethyl-phenyl)-2-[4-(2-hydroxy-ethyl)-piperazin-1-ylmethyl]-1H-imidazo[4,5-c]pyridine-4-carbonitrile]
